Reference: patent US20240148679A1, “METHODS AND COMPOSITIONS RELATED TO TREATMENT AND PREVENTION OF CANCER BY INHIBITION OF DGAT1 AND DGAT2” (Ohio State Innovation Foundation, priority 2019, published 2024)

Legend:
GBM cells (U251) = assay: Mitochondrial morphology (TEM, MitoTracker Red); type: cell-based, human; conditions: inhibitor 24 hours
Protocol: (A, B) Transmission electron microscopy (TEM) analysis of the mitochondrial morphology in GBM cells (U251) treated with the DGAT1 inhibitor A-922500 (20 μg/ml) or DGAT2 inhibitor PF-06424439 (20 μg/ml) for 24 hr and shown in a or infected with shRNA-expressing lentivirus against DGAT1 for 48 hr and shown in b. Scale bar, 500 nm. Mitochondria are indicated by red arrows. Mitochondria length and loss of cristae (%) were quantified by ImageJ over 100 mitochondria in each group (mean±SEM). Statistical significance was determined by one-way ANOVA. * P<0.0001. (C, D) Representative fluorescence images of LDs (green) and mitochondria (red) in U251 cells treated with DGAT1 or DGAT2 inhibitor and shown in c or shRNA in (D) as in panels (A, B). […] The percentage of cells with tubular or fragmented mitochondria was quantified by ImageJ in more than 100 cells (mean±SEM). Statistical significance was determined by one-way ANOVA. * P<0.001. […] Lower panels show the quantification of relative basal and maximal OCR change (details please see Methods). […] Basal OCR was determined as OCR before oligomycin subtract OCR after rotenone addition, and maximal OCR was determined as OCR after FCCP subtract OCR after rotenone addition. Statistical significance was determined by one-way ANOVA. * P<0.0001. […] ROS were detected with CellROX Deep Red, and mitochondria were stained with MitoTracker Green. […]

[1] = test system: U87/EGFRvIII cells-derived subcutaneous model; assay: U87/EGFRvIII subcutaneous xenograft model; type: in vivo, mice; conditions: 120 mg/kg/day
Protocol: (§1) (A-C) The effects of the DGAT1 inhibitor […] (120 mg/kg/day, oral gavage, details in Methods) in U87/EGFRvIII cells (1×10^6 cells/mouse)- or GBM30-derived subcutaneous models (4×10^6 cells/mouse), as shown by tumor growth rate in A and final isolated tumor images and weights in B. Tumor tissues were analyzed for LD presence by IF (TIP47 staining) and CPT1A and cleaved Caspase 3 levels by IHC in C. LD numbers and protein levels in tumor tissues were quantified by ImageJ and averaged from 5 separate areas in each tumor. The results for protein levels were normalized to control tumors (mean±SEM). Statistical significance was determined by one-way ANOVA. * P<0.01 for comparison with control group. Scale bars, m for IF, 40 m for IHC.
(§2) It was next examined whether pharmacological inhibition of DGAT1 is effective in inhibiting GBM growth using U87/EGFRvIII and GBM30 xenograft models. Tumor cells were implanted in mice flanks and started treatment with DGAT1 inhibitor A-922500 (120 mg/kg/day) when tumor reached approximately 80 mm3.
(§3) Intracranial xenograft models were generated using female athymic nude (NCr-nu/nu) mice (6-8 weeks of age obtained from OSU Target Validation Shared Resource). U87EGFRvIII (1×10^6) cells infected with shDGAT1-, shDGAT2- or scramble shRNA-expressing lentivirus for 48 hr (suspended in 100 μl PBS) were implanted into mice flank to generate subcutaneous model. For intracranial xenograft model, U87EGFRvIII-luc (1×10^5) or GBM30-luc (1×10^5) cells infected with shDGAT1-, shDGAT2- or scramble shRNA-expressing lentivirus for 48 hours (suspended in 5 μl PBS) were implanted into mouse brains. Mice were observed until they became moribund, at which point they were sacrificed. For drug treatment, U87EGFRvIII (1×10^6 cells suspended in 100 μl PBS) or GBM30 cells (4×10^6 suspended in 100 μl PBS and then mixed with 100 μl matrigel) were implanted in mouse flanks. DGAT1 inhibitor A-922500 (120 mg/kg/day, oral gavage) was formulated by 1% Tween 80 in PBS and administrated to mice when tumor size reached approximately 80 mm^3.

[2] = test system: GBM30-derived subcutaneous model; assay: GBM30 subcutaneous xenograft model; type: in vivo, mice; conditions: 120 mg/kg/day
Protocol: as §1, §2, §3

[3] = oral gavage, listed as A-900225

O=C(Nc1ccccc1)Nc1ccc(-c2ccc(C(=O)[C@@H]3CCC[C@H]3C(=O)O)cc2)cc1 [A-922500]
structure of mitochondria (GBM cells (U251)): severely disrupted
CPT1A expression in tumor tissues [1]: significantly increased CPT1A expression
LD formation in tumor tissues (TIP47) [1]: dramatically suppressed LD formation
cleaved caspase 3 levels in tumor tissues [1]: markedly elevated cleaved caspase 3 levels
tumor growth ([1]; oral gavage): significantly suppressed tumor growth
tumor weight ([1]; oral gavage): dramatic reduction in tumor weight
tumor growth [1, 3]: dramatically suppresses GBM tumor growth
CPT1A expression in tumor tissues [2]: significantly increased CPT1A expression
LD formation in tumor tissues (TIP47) [2]: dramatically suppressed LD formation
cleaved caspase 3 levels in tumor tissues [2]: markedly elevated cleaved caspase 3 levels
tumor growth ([2]; oral gavage): significantly suppressed tumor growth
tumor weight ([2]; oral gavage): dramatic reduction in tumor weight
tumor growth [2, 3]: dramatically suppresses GBM tumor growth
